Test results as given in EPA's ToxValDB 9.5.
Where “and” joins values, the source holds several entries; their conditions need not be identical. Equal values may be shown once.

Assays:
Rattus norvegicus = conditions: oral
Mus musculus = conditions: oral
[1] = short-term, duration: 28 days, M, CD, Body Weight: 10% decrease in final body weight
[2] = short-term, duration: 28 days, M, CD, Hepatic: 34% decrease in serum triglyceride levels, minimal hepatocellular hypertrophy at ?[…] / minimal focal necrosis at 29 mg/kg/day
[3] = subchronic, duration: 90 days, M, CD, Body Weight: 33% reduction in final mean body weight
[4] = developmental, duration: 17 days, F, CD1, Developmental: 323% increased prenatal loss, 16.7% decreased live fetuses, 24.3% decreased neonatal survival
[5] = developmental, duration: 17 days, F, Developmental: Significantly reduced pup survival (46%) from birth to weaning
[6] = reproduction developmental, duration: 17 days, M, CD1, Body Weight: 32% reduced weight gain during pregnancy
[7] = short-term, duration: 14 days, M, CD1, 6-12% decreased in body weight gain
[8] = short-term, duration: 15 days, F, Body Weight: Weight loss (~5%)
[9] = short-term, duration: 15 days, F, Immunotoxicological: Reduced sRBC-specific response to IgM antibody titers
[10] = short-term, duration: 21 days, M, ICR, Body Weight: 17% decrease in weight gain
[11] = short-term, duration: 21 days, M, ICR, Hepatic: 27% increase in relative liver weight at ?0.5 mg/kg/day / increases in ALT at ?[…] / hepatocytomegaly at 18 mg/kg/day / necrosis…
[12] = short-term, duration: 28 days, M, CD1, Hepatic: Mild hepatocellular hypertrophy at ?0.29, moderate to severe hypertrophy and single cell necrosis at ?0.96 mg/kg/day / decreased …

For `O=C([O-])C(F)(F)C(F)(F)C(F)(F)C(F)(F)C(F)(F)C(F)(F)C(F)(F)F.[NH4+]` [Ammonium perfluorooctanoate], the NOAEL (Rattus norvegicus; short-term, duration: 14 days, M, Hepatic: Decreased serum cholesterol levels at ?0.3 mg/kg/day) was 30 mg/kg-day, the NOAEL (Rattus norvegicus; short-term, duration: 14 days, M, Sprague-Dawley, Hepatic: 2-fold increased mean relative liver weight at 50 mg/kg/day + Immunotoxicological: No alterations in spleen weight or splenocyte …) was 50 mg/kg-day and the LOAEL (Rattus norvegicus; short-term, duration: 28 days, F, albino, Death: before end of 1st week of study) was 1130 mg/kg-day. It also gave an NOAEL (Rattus norvegicus; short-term, duration: 28 days, M, CD) of 29 mg/kg-day, an NOAEL (Rattus norvegicus; short-term, duration: 28 days, M, CD, Body Weight: 30 mg/kg/day: 11% reduction in final body weight / 100 mg/kg/day: 33% reduction in final body weight) of 10 mg/kg-day and an LOAEL (Rattus norvegicus; [1]) of 9.6 mg/kg-day. It also gave an NOAEL (Rattus norvegicus; [1]) of 0.96 mg/kg-day, an LOAEL (Rattus norvegicus; [2]) of 29 mg/kg-day and an NOAEL (Rattus norvegicus; [2]) of 0.29 mg/kg-day. For the same compound, the NOAEL (Rattus norvegicus; short-term, duration: 28 days, M, CD, Hepatic: Hepatocyte hypertrophy) was 3 mg/kg-day, the LOAEL (Rattus norvegicus; short-term, duration: 28 days, M, Sprague-Dawley, Hepatic: Increased liver weight (43% on day 29), decreased serum cholesterol (39% on day 29) and triglyceride (73% on day 29), …) was 18 mg/kg-day and the LOAEL (Rattus norvegicus; short-term, duration: 28 days, M, albino, Death: 5/5 males and 5/5 females died) was 1000 mg/kg-day. The NOAEL (Rattus norvegicus; subchronic, duration: 13 weeks, M, CD, Hepatic: Minimal to moderate hepatocellular hypertrophy at ?0.64 mg/kg/day + Neurological: No histological alterations + Reproductive: No …) was 6.5 mg/kg-day, the NOAEL (Rattus norvegicus; subchronic, duration: 90 days, F, CD) was 100 mg/kg-day and the NOAEL (Rattus norvegicus; subchronic, duration: 90 days, F, CD, Neurological: No histological alterations) was 110 mg/kg-day. The LOAEL (Rattus norvegicus; [3]) was 100 mg/kg-day, the NOAEL (Rattus norvegicus; [3]) was 30 mg/kg-day and the NOAEL (Rattus norvegicus; subchronic, duration: 90 days, M, CD, Hepatic: Hepatocyte hypertrophy / 50% increase in absolute liver weight + Reproductive: No histological alterations) was 100 mg/kg-day. The LOAEL (Mus musculus; developmental, duration: 1 days, M, CD1, Developmental: Decreased spontaneous activity and altered response to cholinergic stimulant) was 0.58 mg/kg-day, the LOAEL (Mus musculus; developmental, duration: 10 days, F, CD1, Developmental: Altered mammary gland development in female pups / reduced pup weight on PND 20) was 5 mg/kg-day and the LOAEL (Mus musculus; developmental, duration: 10 days, F, CD1, Developmental: Delayed mammary gland development (30-60%) in female pups on PNDs 1-10 + Reproductive: Immature mammary gland morphology in …) was 5 mg/kg-day. For the same compound, the NOAEL (Mus musculus; developmental, duration: 10 days, F, CD1, Hepatic: 40-120% increased relative liver weight in lactating dams on PNDs 1-10) was 5 mg/kg-day, the LOAEL (Mus musculus; developmental, duration: 11 days, F, CD1, Developmental: Delayed mammary gland development (31-47%) in female pups on PNDs 22-32 and at 18 months) was 5 mg/kg-day and the LOAEL (Mus musculus; developmental, duration: 11 days, F, CD1, Developmental: Reduced pup body weight at weaning, 43% in males and 35% in females) was 5 mg/kg-day. The NOAEL (Mus musculus; developmental, duration: 12 days, F) was 1 mg/kg-day, the LOAEL (Mus musculus; developmental, duration: 12 days, F, Developmental: 7-10% decrease in litter weight on PND 2) was 0.5 mg/kg-day and the NOAEL (Mus musculus; developmental, duration: 17 days, F) was 10 mg/kg-day. For the same compound, the LOAEL (Mus musculus; developmental, duration: 17 days, F, CD1, Developmental: 3 mg/kg/day: reduced weight gain through lactation (14.8% in males and 20.6% in females) / delayed eye opening and hair …) was 3 mg/kg-day and 5 mg/kg-day, the LOAEL (Mus musculus; [4]) was 5 mg/kg-day and the NOAEL (Mus musculus; [4]) was 1 mg/kg-day. It also gave an LOAEL (Mus musculus; developmental, duration: 17 days, F, CD1, Developmental: Decreased birth weight (approximately 8%) and body weight at weaning (24%)) of 5 mg/kg-day, an LOAEL (Mus musculus; developmental, duration: 17 days, F, CD1, Developmental: Delayed mammary gland development in female pups on PNDs 22-63 + Reproductive: Delayed mammary gland lactational …) of 0.0024 mg/kg-day and an LOAEL (Mus musculus; developmental, duration: 17 days, F, CD1, Developmental: Delayed mammary gland development in female pups on PNDs 22-63 and at 18 months) of 3 mg/kg-day. It also gave an LOAEL (Mus musculus; developmental, duration: 17 days, F, CD1, Developmental: Increased prenatal loss / 40% reduced neonatal body weight on PNDs 5 and 10) of 5 mg/kg-day, an LOAEL (Mus musculus; developmental, duration: 17 days, F, CD1, Reproductive: Delayed mammary gland differentiation) of 5 mg/kg-day and an LOAEL (Mus musculus; [5]) of 0.6 mg/kg-day. For the same compound, the NOAEL (Mus musculus; [5]) was 0.3 mg/kg-day, the NOAEL (Mus musculus; reproduction developmental, duration: 11 days, F, CD1, Body Weight: No alterations in dams dosed on GDs 15-17 + Hepatic: Increase in relative liver weight in dams dosed on GDs 13-17, 10-17, or 7-…) was 20 mg/kg-day and the NOAEL (Mus musculus; reproduction developmental, duration: 17 days, F, CD1, Hepatic: Significant increase in relative and absolute maternal liver weight on PND 22 at ?3 mg/kg/day) was 5 mg/kg-day. It also gave an LOAEL (Mus musculus; reproduction developmental, duration: 17 days, F, CD1, Reproductive: Delayed mammary gland lactational differentiation in dams on PND 22) of 1 mg/kg-day, an NOAEL (Mus musculus; reproduction developmental, duration: 17 days, F, Hepatic: Increased absolute and relative liver weight of dams on PND 22 at ?1 mg/kg/day) of 20 mg/kg-day and an NOAEL (Mus musculus; reproduction developmental, duration: 17 days, M, CD1, 38% increase in absolute liver weight at ?1 mg/kg/day) of 1 mg/kg-day. For the same compound, the LOAEL (Mus musculus; [6]) was 10 mg/kg-day, the NOAEL (Mus musculus; [6]) was 5 mg/kg-day and the NOAEL (Mus musculus; short-term, duration: 14 days, M/F, CD1, Hepatic: 123-155% increase in absolute liver weight in 14 days at ?5.3 mg/kg/day) was 537 mg/kg-day. The LOAEL (Mus musculus; [7]) was 10 mg/kg-day, the NOAEL (Mus musculus; [7]) was 3 mg/kg-day and the NOAEL (Mus musculus; short-term, duration: 14 days, M, CD1, Hepatic: Decreased serum cholesterol levels at ?0.3 mg/kg/day) was 30 mg/kg-day. It also gave an LOAEL (Mus musculus; [8]) of 15 mg/kg-day, an NOAEL (Mus musculus; [8]) of 7.5 mg/kg-day and an LOAEL (Mus musculus; [9]) of 3.75 mg/kg-day. The NOAEL (Mus musculus; [9]) was 1.88 mg/kg-day, the NOAEL (Mus musculus; short-term, duration: 21 days, M/F, CD1, Hepatic: 39-41% increase in absolute liver weight at ?5.4 mg/kg/day) was 5.4 mg/kg-day and the NOAEL (Mus musculus; short-term, duration: 21 days, M, ICR) was 47 mg/kg-day. For the same compound, the LOAEL (Mus musculus; [10]) was 18 mg/kg-day, the NOAEL (Mus musculus; [10]) was 2.6 mg/kg-day and the LOAEL (Mus musculus; [11]) was 47 mg/kg-day. It also gave an NOAEL (Mus musculus; [11]) of 18 mg/kg-day, an LOAEL (Mus musculus; short-term, duration: 28 days, F, CD1, 5/5 died before 4th week of study) of 58 mg/kg-day and an LOAEL (Mus musculus; short-term, duration: 28 days, F, CD1, Body Weight: Males: final body weight 20% lower than controls / females: final body weight 25% lower than controls) of 5.8 mg/kg-day. For the same compound, the NOAEL (Mus musculus; short-term, duration: 28 days, M/F, CD1, Hepatic: 3-fold or greater increased absolute and relative liver weight and hepatocellular hypertrophy at ?5.4 mg/kg/day) was 18 mg/kg-day, the LOAEL (Mus musculus; short-term, duration: 28 days, M, CD1, Body Weight: Males: final body weight 20% lower than controls / females: final body weight 25% lower than controls) was 5.4 mg/kg-day and the LOAEL (Mus musculus; short-term, duration: 28 days, M, CD1, Body Weight: Weight loss (86% of controls)) was 9.6 mg/kg-day. For the same compound, the NOAEL (Mus musculus; short-term, duration: 28 days, M, CD1, Body Weight: Weight loss (86% of controls) + Immunotoxicological: Decreased response to sRBC, decreased number of splenic and thymic …) was 0.96 mg/kg-day, the LOAEL (Mus musculus; short-term, duration: 28 days, M, CD1, Death: 4/5 died before end of 4th week) was 54 mg/kg-day and the LOAEL (Mus musculus; short-term, duration: 28 days, M, CD1, Death: 5/5 died before 2nd week of study) was 180 mg/kg-day. The LOAEL (Mus musculus; [12]) was 0.96 mg/kg-day, the NOAEL (Mus musculus; [12]) was 0.29 mg/kg-day and the LOAEL (Mus musculus; short-term, duration: 28 days, M, CD1, Immunotoxicological: Decreased response to sRBC, decreased number of splenic and thymic lymphocytes) was 9.6 mg/kg-day.
